From patent US20250092066A1, “SUBSTITUTED BICYCLIC HETEROCYCLES AS MALT-1 INHIBITORS” (AURIGENE ONCOLOGY LIMITED, priority 2022, published 2025)

Biological target: MALT-1 (Isoform1) (Homo sapiens (Human), UniProt Q9UDY8)
Test: Biochemical fluorescent assay of MALT-1 (Isoform1) enzyme inhibition
Conditions: recombinant MALT-1 (Isoform1); for inhibition at 1 µM / Percent Inhibition (@ 1 μM): compound at 1 μM; for inhibition at 1 µM: read-out: Percent Inhibition (@ 1 μM); for IC50: 50 μM AC-LRSR-MAC substrate, 240 min
Method: The potency of compounds to inhibit MALT-1 (Isoform1) enzyme was tested in a Fluorescent assay using recombinant MALT-1 (Isoform1, aa-840) generated in-house. The assay buffer was 50 mM HEPES (pH 7.5), 100 mM NaCl, 10 mM DTT, 1 mM EDTA, 0.9 M sodium citrate, 0.01% CHAPS. 1.5 nM of MALT-1 enzyme was incubated with various concentrations of test compounds ([…]) (1% DMSO) in the presence of buffer for 30 minutes at 30° C. The protease reaction was initiated by adding 50 μM of AC-LRSR-MAC (Peptide International, USA) substrate and incubated for 240 min. After 240 min incubation, fluorescence emission of the samples at 460 nm was measured at an excitation of 355 nm. The percent inhibition was calculated using the following formula: […]. IC50 values were determined by fitting the dose-response data to sigmoidal curve fitting equation using Graph pad prism software VS.

Sequence of MALT-1 (Isoform1) (Q9UDY8 whole entry, canonical isoform): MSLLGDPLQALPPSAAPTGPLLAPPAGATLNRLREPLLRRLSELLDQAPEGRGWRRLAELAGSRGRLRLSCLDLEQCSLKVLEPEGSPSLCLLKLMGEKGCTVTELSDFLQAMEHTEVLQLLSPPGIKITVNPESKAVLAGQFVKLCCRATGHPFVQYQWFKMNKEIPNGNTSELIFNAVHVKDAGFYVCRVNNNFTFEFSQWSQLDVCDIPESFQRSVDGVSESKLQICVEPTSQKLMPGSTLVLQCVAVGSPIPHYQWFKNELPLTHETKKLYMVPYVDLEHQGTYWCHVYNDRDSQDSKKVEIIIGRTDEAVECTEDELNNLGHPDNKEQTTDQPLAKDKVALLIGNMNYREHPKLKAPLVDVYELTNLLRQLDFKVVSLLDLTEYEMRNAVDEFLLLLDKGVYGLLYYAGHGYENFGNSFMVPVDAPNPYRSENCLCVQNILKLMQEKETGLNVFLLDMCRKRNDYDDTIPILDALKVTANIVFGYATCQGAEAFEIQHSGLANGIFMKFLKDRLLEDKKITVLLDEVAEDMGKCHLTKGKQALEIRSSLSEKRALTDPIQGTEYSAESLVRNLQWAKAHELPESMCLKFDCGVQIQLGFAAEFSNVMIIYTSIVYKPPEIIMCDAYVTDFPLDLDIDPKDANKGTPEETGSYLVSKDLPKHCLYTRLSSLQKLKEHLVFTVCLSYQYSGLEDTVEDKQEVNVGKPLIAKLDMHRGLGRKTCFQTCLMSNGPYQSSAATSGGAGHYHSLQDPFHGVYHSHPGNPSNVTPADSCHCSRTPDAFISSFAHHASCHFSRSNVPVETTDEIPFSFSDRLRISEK

| inhibition at 1 µM | IC50 | Percent Inhibition (@ 1 μM) | SMILES |
| --- | --- | --- | --- |
| 17% | > 250 nM | – | CO[C@@H](C)c1c(NC(=O)Nc2cn3nc(C)nc3c(Br)c2C)cnc2cc(Cl)nn12 [Example 19] |
| 38% | > 250 nM | – | COc1cc(NC(=O)Nc2cnc3cc(Cl)nn3c2[C@H](C)OC)cn2nc(C)nc12 [Example 10] |
| – | > 250 nM | 8% | COC(C)c1c(NC(=O)Nc2cc(Cl)c3nc(C)nn3c2)cnc(C)c1Br (single isomer, unassigned) [Example 35b, 1-(5-bromo-4-(1-methoxyethyl)-6-methylpyridin-3-yl)-3-(8-chloro-2-methyl-[1,2,4]triazolo[1,5-a]pyridin-6-yl)urea] |
| 77% | > 250 nM | – | COC(C)c1c(NC(=O)Nc2cc(F)c3nc(C)nn3c2)cnc2sc(C)nc12 (stereo not drawn) [Example 39, 1-(8-fluoro-2-methyl-[1,2,4]triazolo[1,5-a]pyridin-6-yl)-3-(7-(1-methoxyethyl)-2-methylthiazolo[5,4-b]pyridin-6-yl)urea] |
| 98% | < 50 nM | – | CO[C@@H](C)c1c(NC(=O)Nc2cc(Cl)c3nc(C)nn3c2)cnc2cc(Cl)nn12 [Example 5] |
| 48% | > 250 nM | – | COC(C)c1c(NC(=O)Nc2cc(F)c3nc(C)nn3c2)cnc(C)c1Cl (stereo not drawn) [Example 37] |
| 86% | 51 to 250 nM | – | CO[C@@H](C)c1c(NC(=O)Nc2cc(F)c3nccn3c2)cnc2cc(Cl)nn12 [Example 43] |
| 96% | < 50 nM | – | CO[C@@H](C)c1c(NC(=O)Nc2cc(Cl)c3nc(Cl)nn3c2)cnc2cc(Cl)nn12 [Example 30] |
| – | < 50 nM | 99% | COC(c1c(NC(=O)Nc2cc(F)c3nc(C)nn3c2)cnc2cc(Cl)nn12)C(C)C (single isomer, unassigned) [Example 31b, 1-(2-chloro-7-(1-methoxy-2-methylpropyl)pyrazolo[1,5-a]pyrimidin-6-yl)-3-(8-fluoro-2-methyl-[1,2,4]triazolo[1,5-a]pyridin-6-yl)urea] |
| 98% | > 250 nM | – | Cc1nc2c(F)cc(NC(=O)Nc3cnc4cc(Cl)nn4c3C3(C(F)(F)F)CC3)cn2n1 [Example 23] |
| 96% | 51 to 250 nM | – | COC(c1c(NC(=O)Nc2cc(F)c3nc(C)nn3c2)cnc2cc(Cl)nn12)C1CC1 (single isomer, unassigned) [Example 32a, 1-(2-chloro-7-(cyclopropyl(methoxy)methyl)pyrazolo[1,5-a]pyrimidin-6-yl)-3-(8-fluoro-2-methyl-[1,2,4]triazolo[1,5-a]pyridin-6-yl)urea] |
| 94% | < 50 nM | – | CO[C@@H](C)c1c(NC(=O)Nc2cc(Cl)c3nc(C(F)(F)F)nn3c2)cnc2cc(Cl)nn12 [Example 8] |
| 86% | 51 to 250 nM | – | CO[C@@H](C)c1c(NC(=O)Nc2cc(F)c3nc(C(=O)N4CCCC4)nn3c2)cnc2cc(Cl)nn12 [Example 48] |
| – | < 50 nM | 99% | COC(c1c(NC(=O)Nc2cc(F)c3nc(C)nn3c2)cnc2cc(Cl)nn12)C1CC1 (single isomer, unassigned) [Example 32b, 1-(2-chloro-7-(cyclopropyl(methoxy)methyl)pyrazolo[1,5-a]pyrimidin-6-yl)-3-(8-fluoro-2-methyl-[1,2,4]triazolo[1,5-a]pyridin-6-yl)urea] |
| 96% | < 50 nM | – | CO[C@@H](C)c1c(NC(=O)Nc2cc(Br)c3ncnn3c2)cnc2cc(Cl)nn12 [Example 3] |
| 84% | > 250 nM | – | CO[C@@H](C)c1c(NC(=O)Nc2cc(F)c3ncnn3c2)cnc2cc(C)nn12 [Example 28] |
| 98% | < 50 nM | – | CCC(OC)c1c(NC(=O)Nc2cc(F)c3nc(C)nn3c2)cnc2cc(Cl)nn12 (racemic) [Example 33, 1-(2-chloro-7-(1-methoxypropyl)pyrazolo[1,5-a]pyrimidin-6-yl)-3-(8-fluoro-2-methyl-[1,2,4]triazolo[1,5-a]pyridin-6-yl)urea] |
| 96% | > 250 nM | – | CO[C@@H](C)[C@@H](OC)c1c(NC(=O)Nc2cc(F)c3nc(C)nn3c2)cnc2cc(Cl)nn12 [Example 21] |
| 100% | < 50 nM | – | COC(c1c(NC(=O)Nc2cc(F)c3nc(C)nn3c2)cnc2cc(Cl)nn12)C(C)C (single isomer, unassigned) [Example 31a, 1-(2-chloro-7-(1-methoxy-2-methylpropyl)pyrazolo[1,5-a]pyrimidin-6-yl)-3-(8-fluoro-2-methyl-[1,2,4]triazolo[1,5-a]pyridin-6-yl)urea] |
| 62% | > 250 nM | – | Cc1nc2c(C3CC3)c(NC(=O)Nc3cc(Cl)c4ncnn4c3)cnc2s1 [Example 38, 1-(8-chloro-[1,2,4]triazolo[1,5-a]pyridin-6-yl)-3-(7-cyclopropyl-2-methylthiazolo[5,4b]pyridin-6-yl)urea] |
| 95% | < 50 nM | – | CO[C@@H](C)c1c(NC(=O)Nc2cc(F)c3nc(C)nn3c2)cnc2cc(Br)nn12 [Example 25] |
